{"source": "patent US20070053869A1", "about": "“Formulation and method for enhancement of gastrointestinal absorption of pharmaceutical agents” (priority 2005, published 2007)", "key": {"GFP MDCK-II cells": {"test_system": "GFP MDCK-II cells", "test": "[3H]-mitoxantrone accumulation in GFP-transduced MDCK-II control cells", "format": "cell-based"}, "ABCG2 [1]": {"target": "T1, ABCG2 (Homo sapiens, UniProt Q9UNQ0)", "T1 sequence (Q9UNQ0 1-655)": "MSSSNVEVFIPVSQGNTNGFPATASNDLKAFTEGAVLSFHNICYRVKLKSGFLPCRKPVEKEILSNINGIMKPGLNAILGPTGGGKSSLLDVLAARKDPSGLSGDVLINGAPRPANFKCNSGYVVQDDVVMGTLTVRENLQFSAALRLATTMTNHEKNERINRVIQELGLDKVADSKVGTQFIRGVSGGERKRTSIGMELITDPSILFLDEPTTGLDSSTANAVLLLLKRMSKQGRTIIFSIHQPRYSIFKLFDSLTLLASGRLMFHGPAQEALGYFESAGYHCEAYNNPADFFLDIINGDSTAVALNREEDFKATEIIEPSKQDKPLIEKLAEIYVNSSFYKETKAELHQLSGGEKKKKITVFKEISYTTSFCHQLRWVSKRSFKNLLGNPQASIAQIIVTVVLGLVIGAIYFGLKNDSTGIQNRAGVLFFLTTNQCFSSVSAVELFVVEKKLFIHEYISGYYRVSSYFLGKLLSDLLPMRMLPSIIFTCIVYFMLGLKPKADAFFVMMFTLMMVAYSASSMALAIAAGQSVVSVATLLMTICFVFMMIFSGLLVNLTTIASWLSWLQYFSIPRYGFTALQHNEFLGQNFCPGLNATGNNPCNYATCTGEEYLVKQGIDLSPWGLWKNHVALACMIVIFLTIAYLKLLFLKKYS", "test": "[3H]-mitoxantrone accumulation in ABCG2-transduced MDCK-II cells (BCRP MDCK-II)", "procedure": "Methods: For constructing MDCK-II cells expressing human ABCG2 or green fluorescent protein (GFP), MDCK-II cells were infected with recombinant adenoviruses containing human ABCG2 or GFP cDNA at 48 h prior to the experiments. ABCG2 or GFP-transduced cells were preincubated in prewarmed transport buffer for 15 min. Subsequently, [^3H]-mitoxantrone (MTX) was added in transport buffer to apical compartments. Accumulation of radiolabeled substrates was allowed for 2 h at 37° C. with or without an appropriate concentration of pharmaceutical excipients, 20 μM of GF120918 or 5 μM of PSC833. The reactions were arrested by washing cells with ice-cold transport buffer. Cells were solubilized and then the lysates were transferred to a liquid scintillation counter for measurement of radioactivity.\nTo abolish the influence of endogenous P-gp, PSC833 (P-gp inhibitor) was added during the incubation for 2 h, except that in the samples treated with GF120918 (a shared ABCG2 and P-gp inhibitor) no PSC833 was added.\nThe inhibitory effect of excipients on ABCG2 was further characterized in an intracellular accumulation study. MDCK-II cells overexpressing ABCG2 (BCRP MDCK-II) and, as controls, MDCK-II cells overexpressing green fluorescence protein (GFP) (GFP MDCK-II) were prepared. Mitoxantrone was used as the substrate. Intracellular mitoxantrone accumulation in the presence or absence of excipients was determined.\nTo discover the excipients that can inhibit ABCG2, we performed an intracellular accumulation study using BCRP MDCK-II and GFP MDCK-II cells in the absence or presence of excipients. Mitoxantrone was used as the substrate. To abolish the effect of endogenous P-gp, this experiment was performed in the presence of PSC833. […] All of the excipients were used below their cmc, because above their cmc, excipients form micelles that can interact with the substrate, and as a consequence the effective concentration of mitoxantrone in the experimental medium can decrease."}, "[2]": {"settings": "reported in literature; cited from earlier work"}, "[3]": {"test": "critical micelle concentration by surface tension in a transport buffer", "format": "physicochemical", "description": "The critical micelle concentration can be measured by a surface tension method,-e.g. using a Tensiometer, or other methods known in the art. Any suitable method known in the art can be used to measure the cmc. In a particular embodiment ASTM D 971 REV A is used.\nTherefore, we determined the cmc of the 11 excipients used above, and others, by measuring surface tension in a transport buffer. […] The concentration beyond which there was no further change in surface tension was taken as the cmc."}, "ABCG2 [4]": {"target": "T1, ABCG2", "protocol": "(§6) Measurement of the uptake of [^3H]-estrone-3-sulfate (E1S) was carried out for 11 pharmaceutical excipients at or near their reported critical micelle concentrations using ABCG2-expressing membrane vesicles.\n(§7) Eleven of the pharmaceutical excipients of Table 2 were examined for effect on ABCG2 function at their cmc. The inhibitory mechanism of ABCG2 inhibition by pharmaceutical excipients was also investigated. […] The uptake of E1S into these membrane vesicles was examined in the presence and absence of the first eleven excipients of Table 2.\n(§8) The IC50 values for these excipients, and their mode of inhibitory action for the function of ABCG2 were evaluated and determined.\n(§9) Km and Vmax were calculated for ABCG2 inhibition by excipients at a concentration near the IC50 values. Then, their values were compared to those obtained in the absence of excipient. […] Results are the means±SE (n=3)."}, "P-gp": {"target": "P-gp (Homo sapiens, UniProt P08183)", "sequence (P08183 whole entry)": "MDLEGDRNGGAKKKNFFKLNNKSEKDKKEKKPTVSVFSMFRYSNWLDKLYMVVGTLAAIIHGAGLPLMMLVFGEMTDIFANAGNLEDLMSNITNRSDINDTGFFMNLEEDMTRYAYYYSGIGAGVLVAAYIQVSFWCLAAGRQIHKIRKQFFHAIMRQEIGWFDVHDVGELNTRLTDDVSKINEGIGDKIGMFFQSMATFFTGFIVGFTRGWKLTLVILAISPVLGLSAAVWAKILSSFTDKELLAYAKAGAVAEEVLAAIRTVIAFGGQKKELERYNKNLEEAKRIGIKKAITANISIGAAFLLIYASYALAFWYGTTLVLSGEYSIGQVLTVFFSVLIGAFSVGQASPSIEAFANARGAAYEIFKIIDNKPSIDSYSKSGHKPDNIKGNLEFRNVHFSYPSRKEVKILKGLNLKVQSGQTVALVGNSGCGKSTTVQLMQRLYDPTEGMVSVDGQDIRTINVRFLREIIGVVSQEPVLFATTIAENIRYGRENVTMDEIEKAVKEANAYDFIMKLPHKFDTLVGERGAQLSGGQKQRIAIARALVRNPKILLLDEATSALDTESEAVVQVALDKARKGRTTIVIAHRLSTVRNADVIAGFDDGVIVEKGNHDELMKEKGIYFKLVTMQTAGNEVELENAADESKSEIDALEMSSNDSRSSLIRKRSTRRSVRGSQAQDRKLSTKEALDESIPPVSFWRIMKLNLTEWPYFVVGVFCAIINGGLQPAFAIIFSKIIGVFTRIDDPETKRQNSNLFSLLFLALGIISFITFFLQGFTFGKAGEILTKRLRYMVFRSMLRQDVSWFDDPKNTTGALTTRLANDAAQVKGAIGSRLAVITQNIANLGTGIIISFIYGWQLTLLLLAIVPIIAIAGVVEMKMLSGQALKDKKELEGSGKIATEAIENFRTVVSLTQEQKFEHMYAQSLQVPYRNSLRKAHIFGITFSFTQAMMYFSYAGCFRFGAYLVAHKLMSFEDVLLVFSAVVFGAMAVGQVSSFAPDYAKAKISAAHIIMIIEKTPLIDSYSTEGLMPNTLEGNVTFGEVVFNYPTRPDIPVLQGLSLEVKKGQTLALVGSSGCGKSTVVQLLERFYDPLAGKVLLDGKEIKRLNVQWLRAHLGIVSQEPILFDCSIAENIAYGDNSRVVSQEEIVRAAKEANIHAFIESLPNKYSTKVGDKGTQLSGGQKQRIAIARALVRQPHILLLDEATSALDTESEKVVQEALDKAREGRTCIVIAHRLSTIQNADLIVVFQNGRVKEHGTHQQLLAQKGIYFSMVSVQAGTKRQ", "test": "mitoxantrone accumulation in P-gp MDCK-II cells", "description": "Moreover, to investigate the inhibitory effect of excipients on P-gp, we also performed an intracellular accumulation study for 15 excipients using P-gp MDCK-II cells. Mitoxantrone was again used as the substrate."}, "ABCG2 [5]": {"target": "T1, ABCG2", "test": "[3H]-estrone-3-sulfate (E1S) uptake into ABCG2-expressing membrane vesicles from HEK293 cells", "protocol": "as §6, §7, §8, §9"}, "[6]": {"settings": "mouse, in vivo", "procedure": "(§1) Topotecan (1 mg/kg) was administered orally to wild-type and female bcrp1 KO mice. We then determined the plasma concentration of topotecan as a function of time (FIG. 9).\n(§2) We then determined the plasma concentration of topotecan as a function of time.\n(§3) Topotecan was also administered intravenously, for comparison. […] We then determined the plasma concentration of topotecan as a function of time.\n(§4) The dose of topotecan was 1000 μg/kg of body weight.\n(§5) The product of Fa and Fg is presystemic bioavailability for drugs not further metabolized in the liver. […] We determined Fa*Fg using Eh=CLTOT,BLOOD/Qh where Qh is 5.4 (L/h/kg). The fold change relative to wild type control is also presented."}, "[7]": {"test": "ratio of topotecan concentration in blood to plasma", "settings": "mouse, blood and plasma; mice; read-out: RB, ratio of topotecan concentration in blood to plasma"}, "[8]": {"settings": "mouse, in vivo", "procedure": "as §1, §2, §3, §4, §5", "remark": "listed apart in the source"}, "GFP/MDCK II cells": {"test_system": "GFP/MDCK II cells", "test": "intracellular ATP level, luciferin/luciferase assay, GFP/MDCK II cells", "format": "cell-based", "settings": "sodium azide 100 mM; P85 copolymer 20 μM; polysorbate 20 250 μM; polyoxyl 35 castor oil 50 μM; sorbitan monolaurate 100 μM; lauryl PEG ether 100 μM; n=3"}}, "note": "Like-named read-outs stand apart in the source and are kept apart here."}
{"compound": "COc1cc2c(cc1OC)CN(CCc1ccc(NC(=O)c3cccc4c(=O)c5cccc(OC)c5[nH]c34)cc1)CC2", "note": "[GF120918]", "values": [{"measurement": "accumulation of MTX in GFP-transduced cells (in words)", "setting": "GFP MDCK-II cells; Example 1, 20 μM GF120918, 2 h", "result": "no consistent effect"}, {"measurement": "initial accumulation of mitoxantrone, BCRP versus GFP MDCK-II cells", "setting": "ABCG2 [1]", "result": "no significant difference"}, {"measurement": "accumulation of MTX in ABCG2-transduced cells compared to control", "setting": "ABCG2 [1]; human, 2 h, 20 μM", "result": 1.4, "unit": "times"}]}
{"compound": "CCCCCCCCCCCCO[C@@H]1O[C@H](CO)[C@@H](O[C@H]2O[C@H](CO)[C@@H](O)[C@H](O)[C@H]2O)[C@H](O)[C@H]1O", "note": "[LM, n-dodecyl-β-D-maltopyranoside]", "values": [{"measurement": "Reference cmc", "setting": "[2]", "result": 170, "unit": "µM"}, {"measurement": "Measured cmc", "setting": "[3]", "result": 688, "unit": "µM"}, {"measurement": "effect on ABCG2-mediated E1S uptake into vesicles (in words)", "setting": "ABCG2 [4]", "result": "less or no effect"}]}
{"compound": "C/C=C/C[C@@H](C)C(=O)[C@H]1C(=O)N[C@@H](C(C)C)C(=O)N(C)CC(=O)N(C)[C@@H](CC(C)C)C(=O)N[C@@H](C(C)C)C(=O)N(C)[C@@H](CC(C)C)C(=O)N[C@@H](C)C(=O)N[C@H](C)C(=O)N(C)[C@@H](CC(C)C)C(=O)N(C)[C@@H](CC(C)C)C(=O)N(C)[C@@H](C(C)C)C(=O)N1C", "note": "[PSC833]", "values": [{"measurement": "mitoxantrone accumulation in GFP MDCK-II cells (in words)", "setting": "GFP MDCK-II cells; Example 7, P-gp study, endogenous P-gp", "result": "reversed"}, {"measurement": "initial accumulation of mitoxantrone in GFP MDCK-II cells", "setting": "GFP MDCK-II cells; initial time course", "result": "slightly increased"}, {"measurement": "mitoxantrone accumulation in P-gp MDCK-II", "setting": "P-gp; 1 hr (printed 'I hr')", "result": "markedly increased"}, {"measurement": "mitoxantrone accumulation in P-gp MDCK-II cells (in words)", "setting": "P-gp; Example 7", "result": "markedly reversed"}, {"measurement": "initial accumulation of mitoxantrone in P-gp MDCK-II cells", "setting": "P-gp; initial 5 min", "result": "significantly increased"}]}
{"compound": "CCCCCCCCCCCCOCCOCCOCCOCCO", "note": "[Polyoxyl 4 lauryl ether, Lauryl polyethylene glycol ether]", "values": [{"measurement": "IC50", "setting": "ABCG2 [5]", "result": "77.5 ± 4.1", "unit": "µM"}]}
{"compound": "CC[C@@]1(O)C(=O)OCc2c1cc1n(c2=O)Cc2cc3c(CN(C)C)c(O)ccc3nc2-1", "note": "[topotecan]", "values": [{"measurement": "Eh of topotecan", "setting": "[6]", "result": 0.22}, {"measurement": "F of topotecan", "setting": "[6]", "result": 0.27}, {"measurement": "Fa × Fg of topotecan", "setting": "[6]", "result": 0.35}, {"measurement": "Fh of topotecan", "setting": "[6]", "result": 0.78}, {"measurement": "Fold Change of Fa × Fg relative to wild type control", "setting": "[6]", "result": 1.8}, {"measurement": "CLtot,plasma of topotecan", "setting": "[6]; po, 1000 ug/kg", "result": 86.7, "unit": "mL/min/kg"}, {"measurement": "blood plasma ratio", "setting": "[7]", "result": 1.2}, {"measurement": "Eh of topotecan", "setting": "[8]", "result": 0.37}, {"measurement": "F of topotecan", "setting": "[8]", "result": 0.12}, {"measurement": "Fa × Fg of topotecan", "setting": "[8]", "result": 0.19}, {"measurement": "Fh of topotecan", "setting": "[8]", "result": 0.63}, {"measurement": "CLtot,plasma of topotecan", "setting": "[8]; po, 1000 ug/kg", "result": 333, "unit": "mL/min/kg"}]}
{"compound": "Polyoxyethyleneglyceroltrihydroxystearate [Polyoxyl 40 hydrogenated castor oil]", "values": [{"measurement": "mitoxantrone accumulation in P-gp MDCK-II cells (in words)", "setting": "P-gp", "result": "increased"}]}
{"compound": "Polyoxyethyleneglyceroltriricinoleate 35 [Polyoxyl 35 castor oil]", "values": [{"measurement": "mitoxantrone accumulation in P-gp MDCK-II cells (in words)", "setting": "P-gp", "result": "increased"}]}
{"compound": "Polyoxyethylenesorbitan monolaurate", "values": [{"measurement": "mitoxantrone accumulation in P-gp MDCK-II cells (in words)", "setting": "P-gp", "result": "increased"}]}
{"compound": "Polyoxyethylenesorbitan monooleate", "values": [{"measurement": "mitoxantrone accumulation in P-gp MDCK-II cells (in words)", "setting": "P-gp", "result": "increased"}, {"measurement": "inhibition of ABCG2 in the intact cell assay", "setting": "ABCG2 [1]", "result": "did not inhibit ABCG2"}]}
{"compound": "Sorbitan monolaurate", "values": [{"measurement": "Reference cmc", "setting": "[2]", "result": 100, "unit": "µM"}, {"measurement": "mitoxantrone accumulation in P-gp MDCK-II cells (in words)", "setting": "P-gp; Example 7", "result": "increased"}, {"measurement": "mitoxantrone accumulation in BCRP MDCK-II cells (in words)", "setting": "ABCG2 [1]; Example 7, excipients below their cmc, in the presence of PSC833", "result": "significantly increased"}, {"measurement": "intracellular ATP, GFP/MDCK II", "setting": "GFP/MDCK II cells", "result": "132.8 ± 3.6", "unit": "nmol/mg protein"}]}
{"compound": "Sorbitan monooleate", "values": [{"measurement": "Reference cmc", "setting": "[2]", "result": 100, "unit": "µM"}]}
{"compound": "Sorbitan monopalmitate", "values": [{"measurement": "Reference cmc", "setting": "[2]", "result": 200, "unit": "µM"}]}
